#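 Briefly, cells in 96-well plates were exposed to five compound concentrations for 48 h, and endpoints were estimated by linear interpolation. GI50 = concentration required for 50% inhibition of growth. At the TGI there is no net growth.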
# Tests used:
# Test in all cases: NCI tumour cell line growth inhibition, 48 h
# 786-0 renal = test system: 786-0 renal
# A498 renal = test system: A498 renal
# A549 NSCLC = test system: A549 NSCLC
# ACHN renal = test system: ACHN renal
# BT-549 breast = test system: BT-549 breast
# CAKI-1 renal = test system: CAKI-1 renal
# CCRF-CEM leukemia = test system: CCRF-CEM leukemia
# COLO 205 colon = test system: COLO 205 colon
# DU-145 prostate = test system: DU-145 prostate
# EKVX NSCLC = test system: EKVX NSCLC
# HCC-2998 colon = test system: HCC-2998 colon
# HCT-116 colon = test system: HCT-116 colon
# HCT-15 colon = test system: HCT-15 colon
# HL-60(TB) leukemia = test system: HL-60(TB) leukemia
# HOP-62 NSCLC = test system: HOP-62 NSCLC
# HOP-92 NSCLC = test system: HOP-92 NSCLC
# HS 578T breast = test system: HS 578T breast
# HT29 colon = test system: HT29 colon
# K-562 leukemia = test system: K-562 leukemia
# KM12 colon = test system: KM12 colon
# LOX IMVI melanoma = test system: LOX IMVI melanoma
# M14 melanoma = test system: M14 melanoma
# MALME-3M melanoma = test system: MALME-3M melanoma
# MCF7 breast = test system: MCF7 breast
# MDA-MB-231 breast = test system: MDA-MB-231 breast
# MDA-MB-435 = test system: MDA-MB-435
# MOLT-4 leukemia = test system: MOLT-4 leukemia
# NCI-H226 lung = test system: NCI-H226 lung
# NCI-H23 lung = test system: NCI-H23 lung
# NCI-H460 lung = test system: NCI-H460 lung
# NCI-H522 lung = test system: NCI-H522 lung
# NCI/ADR-RES ovarian = test system: NCI/ADR-RES ovarian
# OVCAR-3 ovarian = test system: OVCAR-3 ovarian
# OVCAR-4 ovarian = test system: OVCAR-4 ovarian
# OVCAR-5 ovarian = test system: OVCAR-5 ovarian
# OVCAR-8 ovarian = test system: OVCAR-8 ovarian
# PC-3 prostate = test system: PC-3 prostate
# RPMI-8226 leukemia = test system: RPMI-8226 leukemia
# RXF 393 renal = test system: RXF 393 renal
# SF-268 CNS = test system: SF-268 CNS
# SF-295 CNS = test system: SF-295 CNS
# SF-539 CNS = test system: SF-539 CNS
# SK-MEL-2 melanoma = test system: SK-MEL-2 melanoma
# SK-MEL-28 melanoma = test system: SK-MEL-28 melanoma
# SK-MEL-5 melanoma = test system: SK-MEL-5 melanoma
# SK-OV-3 ovarian = test system: SK-OV-3 ovarian
# SN12C renal = test system: SN12C renal
# SNB-19 CNS = test system: SNB-19 CNS
# SNB-75 CNS = test system: SNB-75 CNS
# SR leukemia = test system: SR leukemia
# SW-620 colon = test system: SW-620 colon
# T-47D breast = test system: T-47D breast
# TK-10 renal = test system: TK-10 renal
# U251 CNS = test system: U251 CNS
# UACC-257 melanoma = test system: UACC-257 melanoma
# UACC-62 melanoma = test system: UACC-62 melanoma
# UO-31 renal = test system: UO-31 renal
smiles,measurement,setting,value
COc1ccccc1/C=N\N=C(N/N=C/c1ccccc1OC)N/N=C/c1ccccc1OC,GI50,786-0 renal,3.25 µM
same,TGI,786-0 renal,67.2 µM
same,GI50,A498 renal,2.73 µM
same,TGI,A498 renal,9.92 µM
same,GI50,A549 NSCLC,3.6 µM
same,TGI,A549 NSCLC,> 100 µM
same,GI50,ACHN renal,3.14 µM
same,TGI,ACHN renal,> 100 µM
same,GI50,BT-549 breast,2.88 µM
same,TGI,BT-549 breast,9.83 µM
same,GI50,CAKI-1 renal,2.08 µM
same,TGI,CAKI-1 renal,6.19 µM
same,GI50,CCRF-CEM leukemia,3.22 µM
same,TGI,CCRF-CEM leukemia,> 100 µM
same,GI50,COLO 205 colon,2.11 µM
same,TGI,COLO 205 colon,4.63 µM
same,GI50,DU-145 prostate,3.92 µM
same,TGI,DU-145 prostate,> 100 µM
same,GI50,EKVX NSCLC,2.68 µM
same,TGI,EKVX NSCLC,> 100 µM
same,GI50,HCC-2998 colon,3.82 µM
same,TGI,HCC-2998 colon,> 100 µM
same,GI50,HCT-116 colon,3.04 µM
same,TGI,HCT-116 colon,11.3 µM
same,GI50,HCT-15 colon,3.27 µM
same,TGI,HCT-15 colon,18.3 µM
same,GI50,HL-60(TB) leukemia,3.09 µM
same,TGI,HL-60(TB) leukemia,9.26 µM
same,GI50,HOP-62 NSCLC,2.91 µM
same,TGI,HOP-62 NSCLC,13.4 µM
same,GI50,HOP-92 NSCLC,1.92 µM
same,TGI,HOP-92 NSCLC,5.34 µM
same,GI50,HS 578T breast,2.88 µM
same,TGI,HS 578T breast,53.2 µM
same,GI50,HT29 colon,3.87 µM
same,TGI,HT29 colon,> 100 µM
same,GI50,K-562 leukemia,3.09 µM
same,TGI,K-562 leukemia,36.4 µM
same,GI50,KM12 colon,2.96 µM
same,TGI,KM12 colon,16.2 µM
same,GI50,LOX IMVI melanoma,3.33 µM
same,TGI,LOX IMVI melanoma,11.3 µM
same,GI50,M14 melanoma,2.99 µM
same,TGI,M14 melanoma,9.96 µM
same,GI50,MALME-3M melanoma,3.73 µM
same,TGI,MALME-3M melanoma,20.8 µM
same,GI50,MCF7 breast,3.02 µM
same,TGI,MCF7 breast,23.5 µM
same,GI50,MDA-MB-231 breast,3.2 µM
same,TGI,MDA-MB-231 breast,9.11 µM
same,GI50,MDA-MB-435,2.36 µM
same,TGI,MDA-MB-435,6.49 µM
same,GI50,MOLT-4 leukemia,3.04 µM
same,TGI,MOLT-4 leukemia,12.1 µM
same,GI50,NCI-H226 lung,4.08 µM
same,TGI,NCI-H226 lung,> 100 µM
same,GI50,NCI-H23 lung,3.91 µM
same,TGI,NCI-H23 lung,> 100 µM
same,GI50,NCI-H460 lung,2.74 µM
same,TGI,NCI-H460 lung,10.8 µM
same,GI50,NCI-H522 lung,4.55 µM
same,TGI,NCI-H522 lung,> 100 µM
same,GI50,NCI/ADR-RES ovarian,3.12 µM
same,TGI,NCI/ADR-RES ovarian,10.5 µM
same,GI50,OVCAR-3 ovarian,2.55 µM
same,TGI,OVCAR-3 ovarian,13.1 µM
same,GI50,OVCAR-4 ovarian,3.43 µM
same,TGI,OVCAR-4 ovarian,> 100 µM
same,GI50,OVCAR-5 ovarian,4 µM
same,TGI,OVCAR-5 ovarian,> 100 µM
same,GI50,OVCAR-8 ovarian,3.23 µM
same,TGI,OVCAR-8 ovarian,14.5 µM
same,GI50,PC-3 prostate,2.77 µM
same,TGI,PC-3 prostate,> 100 µM
same,GI50,RPMI-8226 leukemia,2.96 µM
same,TGI,RPMI-8226 leukemia,12.3 µM
same,GI50,RXF 393 renal,5.01 µM
same,TGI,RXF 393 renal,> 100 µM
same,GI50,SF-268 CNS,3.69 µM
same,TGI,SF-268 CNS,> 100 µM
same,GI50,SF-295 CNS,2.03 µM
same,TGI,SF-295 CNS,5.11 µM
same,GI50,SF-539 CNS,4.27 µM
same,TGI,SF-539 CNS,> 100 µM
same,GI50,SK-MEL-2 melanoma,5.51 µM
same,TGI,SK-MEL-2 melanoma,> 100 µM
same,GI50,SK-MEL-28 melanoma,6.41 µM
same,TGI,SK-MEL-28 melanoma,> 100 µM
same,GI50,SK-MEL-5 melanoma,1.77 µM
same,TGI,SK-MEL-5 melanoma,3.23 µM
same,GI50,SK-OV-3 ovarian,2.68 µM
same,TGI,SK-OV-3 ovarian,8.32 µM
same,GI50,SN12C renal,3.35 µM
same,TGI,SN12C renal,19.7 µM
same,GI50,SNB-19 CNS,3.37 µM
same,TGI,SNB-19 CNS,> 100 µM
same,GI50,SNB-75 CNS,2.72 µM
same,TGI,SNB-75 CNS,9.4 µM
same,GI50,SR leukemia,3.16 µM
same,TGI,SR leukemia,12.5 µM
same,GI50,SW-620 colon,3.38 µM
same,TGI,SW-620 colon,13.6 µM
same,GI50,T-47D breast,3.27 µM
same,TGI,T-47D breast,9.69 µM
same,GI50,TK-10 renal,6.01 µM
same,TGI,TK-10 renal,> 100 µM
same,GI50,U251 CNS,2.67 µM
same,TGI,U251 CNS,15 µM
same,GI50,UACC-257 melanoma,3.12 µM
same,TGI,UACC-257 melanoma,10.2 µM
same,GI50,UACC-62 melanoma,2.55 µM
same,TGI,UACC-62 melanoma,7.71 µM
same,GI50,UO-31 renal,1.81 µM
same,TGI,UO-31 renal,7.25 µM

# From PubChem BioAssay (NCI)
